Results from patent US20240277772A1, “COMBINED ADMINISTRATION COMPOSITION FOR PREVENTING OR TREATING ATOPIC DERMATITIS, COMPRISING FUNCTION-ENHANCED STEM CELLS AND REGULATORY T CELLS” (SCM LIFESCIENCE CO., LTD., priority 2021, published 2024).

Test system: mesenchymal stem cells
Experiment: qRT-PCR of IDO and TSG6 expression in mesenchymal stem cells treated with priming candidates
Format: cell-based
Conditions: for expression of IDO / expression of TSG6: Table 1 compositions, 24 hours, FIG. 4, compared to untreated control or to single substances; for lowest effective concentration capable of inducing significantly increased expression of both TSG6 and IDO: stem cells treated 24 hours, TNF-α and IFN-γ at 5, 10, 20 ng/ml, IFN-α at 10, 20, 40 ng/ml, FIGS. 1-3
Protocol: In a 37° C. and 5% CO2 incubator, mesenchymal stem cells in a storage state (LN2 tank storage) were thawed and cultured, and at this time, the cells were cultured in a medium (DMEM, alpha-MEM) containing 10% FBS or 4% hPL until proliferated to a cell confluence of about 80%. The cultured mesenchymal stem cells were seeded in a 100 mm dish and treated with candidate substances for enhancing the functions of the mesenchymal stem cells for 24 hours, and then the concentrations of primary candidate substances for enhancing the functions were set.
TNF-α, IFN-γ, and IFN-α were selected as the primary candidate substances, and in order to confirm the lowest effective concentration capable of increasing the expression of TNFα-stimulated gene-6 (TSG6) and indoleamine 2,3-dioxygenase (IDO) to confirm the enhanced functions, the stem cells were treated with 5, 10, and 20 ng/ml of TNF-α, 5, 10, and 20 ng/ml of IFN-γ, and 10, 20, and 40 ng/ml of IFN-α, respectively, and changes in expression of TSG6 and IDO were confirmed.
The IDO was known as an immunomodulatory factor that inhibited the proliferation of immune cells such as T cells by converting tryptophan, which was essential for T cell proliferation, into kynurenine, and the TSG6 was known as an anti-inflammatory regulator secreted from mesenchymal stem cells. After culturing the stem cells, total RNA was isolated using TRIzol (Invitrogen), and cDNA was synthesized from total RNA using PrimeScript™RT reagent Kit with gDNA Eraser (TaKaRa), and qRT-PCR was performed. The results of TSG6 and IDO according to the concentration of each candidate substance were illustrated in FIGS. 1, 2 and 3.
Through Example 1, in order to search for more function-enhanced compositions based on the candidate substances and lowest effective concentrations identified to induce the enhanced functions of stem cells, selected candidate substances and combined concentrations thereof were set as shown in Table 1. Mesenchymal stem cells were treated with the candidate combinations described in Table 1 below for 24 hours, and the stem cells were cultured as in Example 1, and then total RNA was isolated using TRIzol (Invitrogen). Thereafter, qRT-PCR was performed by synthesizing cDNA from total RNA using the PrimeScript™RT reagent Kit with gDNA Eraser (TaKaRa).
Vitamins were known to improve the proliferative ability of stem cells and maintain the stemness of stem cells when added during a stem cell culture process. Accordingly, various vitamins were treated in the stem cell culture process, and experiments were performed to confirm whether or not vitamins could achieve anti-inflammatory and immune function enhancing effects of stem cells. Specifically, the stem cells were treated with various types of vitamins shown in Table 2 below according to the method described in Example 1, and the results of confirming changes in expression of IDO and TSG6 according to treatment with each candidate substance were illustrated in FIG. 5.

Row | Substance | expression of IDO | expression of TSG6 | lowest effective concentration capable of inducing significantly increased expression of both TSG6 and IDO
1 | IFN-γ [priming factor for stem cells, 10 ng/ml] | increased expression | increased expression | 10 ng/mL
2 | TNF-α | increased expression | increased expression | 10 ng/mL
3 | IFN-α | increased expression | increased expression | 20 ng/mL
